Columns and labels:
[1] = Acute toxicity in mice (Litchfield and Wilcoxon); type: in vivo; details: mouse, in vivo, po, administered orally
Experimental: (§1) Method of Litchfield and Wilcoxon (J. T. Litchfield and E. J. Wilcoxon: J. Pharmacol. Exp. Therap., 96, 19-113 (1949)).
(§2) The product is administered orally as a suspension in gum arabic at a concentration of 5% in double-distilled water. The volume administered is 10 - ml/kg. The 50% lethal dose (LD50) is calculated by the method cited.

gastric acid secretion = test: Inhibition of gastric acid secretion in Shay rats (Shay's method, pylorus ligation); type: in vivo, Male Wistar rats; details: Rattus norvegicus, administered intraduodenally; for ED50: 2 h; for inhibition in vivo at 40 mg/kg: intraduodenal, 2 h after pylorus ligation, read-out: Percentage inhibition of gastric acid secretion
From the text: Shay's method [H. Shay; S. A. Komarov; S. S. Fels; D. Merange: M. Grvenstein; H. Siplet: Gastroenterology, 5, 43 (1945)--F. E. Visscber; P. H. Seay: A. P. Taxelaar; W. Veldkamp; M. J. Vander Brook: J. Pharmac. Exp. Ther., 110, 188 (1954)--"Animal Experiments in Pharmacological Analysis", F. R. Domer: C. C. Thomas, published by Springfield, Ill., U.S.A., 1970, p. 140].
Male Wistar rats weighing 200 to 250 grams are used in this test; they are fasted from the day preceding the day of the test, with free access to water. Groups containing a minimum of 4 animals each are used.
The rats are anesthetized with ethyl ether, a laparotomy is performed on them and their pylorus is ligated; the abdominal incision is then sewn up. The administration of the products, with the vehicle for the control group, is effected intraduodenally (i.d.) before the abdominal incision is sewn up. The dose administered in the first test is 40 mg/kg and the 50% effective dose (ED50), administered intraduodenally, is also determined in a second test. The vehicle used is gum arabic at a concentration of 5% w/v in double-distilled water.
Two hours after ligation of the pylorus, the rats are sacrificed by prolonged anesthesia with ethyl ether and the volume of gastric juice is measured; the total acidity is determined by means of a pH meter equipped with an automatic burette. For each product and each dose tested, the percentage inhibition of gastric acid secretion is determined relative to the control group.

mice = test: Acute toxicity in mice (Litchfield and Wilcoxon); type: in vivo; details: administered orally; female
Experimental: as §1, §2

[2] = tested on: gastric lesions induced by stress due to immobilization and cold; test: Ulcer-inhibiting activity: inhibition of gastric lesions induced by stress due to immobilization and cold; type: in vivo, Male Wistar rats; details: 40 mg/kg oral
Experimental: Male Wistar rats weighing […] to 200 grams are used in this test; they are fasted in individual cages for 24 hours before the study begins, but with water "ad libitum". Groups containing a minimum of 5 animals each are used.
At the start of the study, the rats receive the products described, or alternatively the vehicle in the case of the control group, by oral administration using a stomach tube. The administered dose of the products described is 40 mg/kg. The vehicle used is gum arabic at a concentration of 5% w/v in double-distilled water.
Immediately after the treatment, the rats are introduced into confined enclosures in the form of a plastic tube with a diameter of about 5 cm and a variable length which can be adapted to the size of the rat. One hour after the treatment, the rats, in their enclosures, are placed in a refrigerator at -5° C. for 3 hours. Immediately after exposure to the cold, the rats are killed by prolonged anesthesia with ethyl ether, the stomachs are extracted and opened along the greater curvature and the lesions in the stomach mucosa are evaluated. For this evaluation, the hemorrhage points are counted and the size of the necrotic ulcers is measured.
For each product and each dose tested, the percentage inhibition of gastric lesions is determined relative to the control group.

[3] = tested on: gastric lesions induced by ethanol; test: Gastric cytoprotection: inhibition of gastric lesions induced by ethanol; type: in vivo, Male Wistar rats; details: 40 mg/kg oral
Experimental: Male Wistar rats weighing 150 to 200 grams are used in this test; they are fasted for 24 hours, but with water "ad libitum". Groups containing a minimum of 5 animals each are used.
At the beginning of the study, the rats receive the products described, or the vehicle in the case of the rats in the control group, by oral administration using a stomach tube. The dose administered for the products described is 40 mg/kg. The vehicle employed is gum arabic at a concentration of 5% w/v in double-distilled water.
Thirty minutes after the treatment, the rats receive 1 ml of absolute ethanol by oral administration using a stomach tube. One hour after the treatment with ethanol, the rats are sacrificed by prolonged anesthesia with ethyl ether, their stomachs are extracted and opened along the greater curvature and the lesions in the stomach mucosa are evaluated. For this evaluation, the hemorrhage points are counted and the size of the necrotic ulcers is measured.
For each product tested, the percentage inhibition of gastric lesions is determined relative to the control group.

[4] = relative to control (gum arabic)

Structure (SMILES)	LD50 ([1]; female) [mg/kg]	LD50 ([1]; male) [mg/kg]	ED50 (gastric acid secretion) [mg/kg]	inhibition in vivo at 40 mg/kg (gastric acid secretion) [%]	other results
CCN(CC)CCCC(C)NS(=O)(=O)c1nc2cc(Cl)ccc2[nH]1 (stereo not shown) [Example 18, 5-Chloro-N-(4-diethylamino-1-methylbutyl)-1H-benzimidazole-2-sulfonamide]	4000	2000	53.5	41	–
CCCCN1CCn2c(nc3cc([N+](=O)[O-])ccc32)S1(=O)=O [Example 133, 2H-2-Butyl-3,4-dihydro-8-nitro-[1,2,5]-thiadiazino-[5,6-a]benzimidazole 1,1-dioxide]	> 3200	> 3200	58.3	40	–
CCN1C(c2ccc([N+](=O)[O-])cc2)=Cn2c(nc3ccc([N+](=O)[O-])cc32)S1(=O)=O [Example 179, 2H-2-Ethyl-7-nitro-3-(4-nitrophenyl)-[1,2,5]-thiadiazino-[5,6-a]benzimidazole 1,1-dioxide]	–	> 6400	–	–	LD50 (mice): > 6400 mg/kg
CCCCN1CCn2c(nc3ccc([N+](=O)[O-])cc32)S1(=O)=O [Example 134, 2H-2-butyl-3,4-dihydro-7-nitro-[1,2,5]-thiadiazino[5,6-a]benzimidazole 1,1-dioxide]	> 3200	> 3200	20.7	70.3	–
CCNS(=O)(=O)c1nc2c([N+](=O)[O-])cccc2[nH]1 [Example 21, N-Ethyl-4-nitro-1H-benzimidazole-2-sulfonamide]	> 1600	> 1600	–	–	–
O=[N+]([O-])c1ccc2[nH]c(S(=O)(=O)NCCCN3CCOCC3)nc2c1 [Example 38, N-[3-(4-Morpholinopropyl)]-5-nitro-1H-benzimidazole-2-sulfonamide]	> 6400	> 6400	–	–	–
NS(=O)(=O)c1nc2cc([N+](=O)[O-])ccc2[nH]1 [Example 34, 5-Nitro-1H-benzimidazole-2-sulfonamide]	> 6400	> 6400	29.9	63	–
CCN(CC)CCCC(C)N1CCn2c(nc3ccc([N+](=O)[O-])cc32)S1(=O)=O (stereo not shown) [Example 144, 2H-2-(4-Diethylamino-1-methylbutyl)-3,4-dihydro-7-nitro-[1,2,5,]-thiadiazino[5,6-a]benzimidazole 1,1-dioxide]	–	–	10	93.7	Inhibition of gastric lesions [2, 4]: 100%; Evaluation of the lesions (x ± standard deviation) ([2]; stress (immobilization and cold), 10 rats): 0
O=S(=O)(NCCN1CCOCC1)c1nc2ccccc2[nH]1 [Example 6]	2600	3300	–	–	–
O=[N+]([O-])c1ccc2nc3n(c2c1)CCN(CCCN1CCOCC1)S3(=O)=O [Example 142]	–	–	17.5	79.4	Evaluation of the lesions (x ± standard deviation) [3]: 0; Inhibition of gastric lesions [3, 4]: 100%
CCN(CC)S(=O)(=O)c1nc2ccc([N+](=O)[O-])cc2n1CC [Example 71, 6-nitro-1,N,N-triethyl-1H-benzimidazole-2-sulfonamide]	6400	6400	–	–	–
CCN1CCn2c(nc3cc([N+](=O)[O-])ccc32)S1(=O)=O [Example 128, 3,4-Dihydro-2H-2-ethyl-8-nitro-[1,2,5]-thiadiazino-[5,6-a]benzimidazole 1,1-dioxide]	> 3200	> 2200	–	–	–
CCN1CCn2c(nc3ccc([N+](=O)[O-])cc32)S1(=O)=O [Example 127, 3,4-Dihydro-2H-2-ethyl-7-nitro-[1,2,5]-thiadiazino-[5,6-a]benzimidazole 1,1-dioxide]	> 6400	> 6400	52.4	56.3	–
COc1ccc(CCN2CCn3c(nc4ccccc43)S2(=O)=O)cc1OC [Example 99, 3,4-Dihydro-2H-2-[2-(3,4-dimethoxyphenylethyl)]-[1,2,5]-thiadiazino[5,6-a]benzimidazole 1,1-dioxide]	> 3200	> 3200	–	–	–
O=S(=O)(NCCCN1CCOCC1)c1nc2ccccc2[nH]1 [Example 8, N-[3-(4-Morpholinopropyl)]-1H-benzimidazole-2-sulfonamide]	6400	6400	–	–	–
O=S1(=O)c2nc3ccccc3n2CCN1CCCN1CCOCC1 [Example 92]	6400	6400	–	–	–
O=S(=O)(Nc1ccc(Cl)cc1)c1nc2cc(Cl)ccc2[nH]1 [Example 16, 5-Chloro-N-(4-chlorophenyl)-1H-benzimidazoIe-2-sulfonamide]	1500	2000	42.6	48	–
O=S(=O)(NCc1ccccn1)c1nc2ccccc2[nH]1 [Example 31, N-(2-Pyridylmethyl)-1H-benzimidazole-2-sulfonamide]	> 6400	> 6400	–	–	–

— patent US4943570A, “Benzimidazolesulfonamides and imidazopyridinesulfonamides, and their application as drugs” (Laboratorios Del Dr. Esteve, S.A., priority 1986, dated 1990)
